Source: patent US12710369B2, “Optical real-time biosensor” (CZ Biohub SF, LLC, priority 2018, dated 2026)

How the values were obtained:
serotonin aptamers [1] = assay: real-time measurement with one-color optical biosensor system, fiber-tethered signal-off serotonin aptamer switch; format: binding; conditions: specificity of 5-HT signal-off aptamer optical probe towards other molecules
From the text: In some embodiments, the optical biosensor system was used to measure other molecules, such as dopamine (DA) and serotonin ([…]). The aptamers for DA and 5-TH are converted into aptamer-switches. (See, e.g., Nakatsuka et al., Aptamer-field-effect Transistors Overcome Debye Length Limitations for Small-molecule Sensing, Science 362: 319-324 (2018).) Higher sensitivity and better photostability were achieved through improvements in detector alignment.
To evaluate the performance of the optical biosensor system in a biological matrix, spiked concentration of 5-HT and DA in an artificial cerebrospinal fluid (aCSF) or a cerebrospinal fluid (CSF), and in brain slices mediums were measured using a one-color optical biosensor system.
The optical biosensor system 2400 includes a laser source 2410, an optical beam splitter 2420, and a detector 2430. The optical biosensor system 2400 may include an optional battery for providing power to the laser source 2410 and the detector 2430. […]
Molecular switches (not shown) are attached to the second end 2466 of the optical waveguide 2462. […] When target molecules, such as dopamine or serotonin, bind to the molecular switches, the molecular switches may emit fluorescence light. The fluorescence light may have a second wavelength that is longer than the first wavelength of the excitation light. The emitted fluorescence light may be coupled back into the optical waveguide 2462 through the second end 2466 and be propagated through the optical waveguide 2462 to be emitted from the first end 2464.
The fluorescence light emitted from the […] of the optical waveguide 2462 may be collimated by the lens 2440 and incident on the optical beam splitter 2420. The optical beam splitter 2420 is configured to transmit the fluorescence light. In some embodiments, the optical beam splitter 2420 may be a dichroic beam splitter configured to have a high reflectance value for the first wavelength of the excitation light, and a high transmittance value for the second wavelength of the fluorescence light. […]

[2] = system: live brain slices (nucleus accumbens); assay: optical fiber sensor in live brain slices, endogenous release of serotonin upon MDMA stimulation; format: cell-based, mouse; design: dose or concentration left out as unconfirmed; conditions: following infusion of MDMA for 10 minutes; 532 nm excitation; NAc
From the text: According to some embodiments, to measure endogenous release of DA and 5-HT upon drug (MDMA) stimulation with the optical biosensor in live brain slices, a rig system and a brain slice recording chamber are installed in a lab with all the necessary components, including: a gravity-perfusion system alimented by peristatic pump, temperature controller, oxygen lines, microscope, camera and micro-stage. It was noted that black curtains covering the entire rig system were necessary to minimize the background and fluctuations from room-light.
Initially, the optical fiber was successfully inserted in a brain slice without compromising or breaking the micron-size tip of the optical fiber. However, due to mechanical contact, the fluorescence signal was mostly lost during the insertion process. Subsequently, the fiber was protected by a capillary tube from mechanical breakage during the transfer processes onto the rig holder and bath. […]
After confirming the sensitivity, robustness, and specificity of the aptamer sensor in the rig system, test measurements were performed with live brain slices. […] After approximately 10 minutes of baseline measurements (aCSF) to determine the stability of the fluorescence signal in the brain environment over time and estimate the photobleaching rate, drug infusion at […] was started for 10 minutes. […]

serotonin aptamers [3] = assay: specificity test of the aptamers: MDMA spiked in control sample in the absence of brain slice (rig bath); format: binding; conditions: excess of MDMA (30 μM), no brain slice, oxygenated aCSF 37° C., 3 ml/min
Experimental: The stability of the fluorescence signal over time is characterized in a bath system (rig) under the appropriate conditions favorable for live brain slice measurements. This includes keeping the temperature of the bath at 37° C., with oxygenated artificial CSF (aCSF) flown in the chamber at a rate of 3 ml/min. A stable fluorescence signal (counts) was observed over tens of minutes under continuous laser excitation, which confirmed the robustness of the aptamers, fluorophores and the surface under such conditions. To test the specificity of the aptamers, an excess of MDMA (30 μM) was spiked in a control sample in the absence of brain slice.

O=C(O)Cc1c[nH]c2ccc(O)cc12 [5-hydroxyindoleacetic acid]
sensor responses (fluorescence signal) (serotonin aptamers [1]): negligible

CNC(C)Cc1ccc2c(c1)OCO2 (centres unmarked) [MDMA]
fluorescence intensity, red channel (Cy5) and green channel (Cy3) [2]: clear drop in the fluorescence intensity | change in the fluorescence signal (serotonin aptamers [3]): Minimal change

CNC[C@H](O)c1ccc(O)c(O)c1 [epinephrine]
sensor responses (fluorescence signal) (serotonin aptamers [1]): negligible

NCCc1ccc(O)c(O)c1 [dopamine]
sensor responses (fluorescence signal) (serotonin aptamers [1]): negligible
